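Cells were grown in 96-well plates and exposed to each compound for 48 hours at five concentrations; endpoints were interpolated linearly between bracketing concentrations, or set to the highest concentration if not reached. Definition used: TGI = concentration required for complete inhibition of growth.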
How the values were obtained:
Experiment in all cases: NCI tumour cell line growth inhibition, 48 h
MDA-N = system: MDA-N
UO-31 renal = system: UO-31 renal
NCI-H23 lung = system: NCI-H23 lung
M14 melanoma = system: M14 melanoma
A549 NSCLC = system: A549 NSCLC
T-47D breast = system: T-47D breast
SF-539 CNS = system: SF-539 CNS
HS 578T breast = system: HS 578T breast
HOP-92 NSCLC = system: HOP-92 NSCLC
NCI/ADR-RES ovarian = system: NCI/ADR-RES ovarian

SMILES	TGI (MDA-N) [µM]	TGI (UO-31 renal) [µM]	TGI (NCI-H23 lung) [µM]	TGI (M14 melanoma) [µM]	TGI (A549 NSCLC) [µM]	TGI (T-47D breast) [µM]	TGI (SF-539 CNS) [µM]	TGI (HS 578T breast) [µM]	TGI (HOP-92 NSCLC) [µM]	TGI (NCI/ADR-RES ovarian) [µM]
CC(CNC(N)=O)NC(N)=O (stereo not drawn)	> 100	> 100	> 100	> 100	> 100	> 100	> 100	> 100	> 100	> 100
COc1cc(N(CCC#N)CCC#N)ccc1/C=N\NC(=O)c1ccc(C)cc1	> 100		> 100	> 100	> 100	> 100	> 100	> 100	> 100	> 100
COC(NC(=O)Nc1ccccc1C)(C(F)(F)F)C(F)(F)F	> 100	> 100	> 100	> 100	> 100	> 100	> 100	> 100	> 100	> 100
O=C(O)c1cccc(NC(C(=O)c2ccccc2)c2ccccc2)c1 (stereo not drawn)	> 100	> 100	> 100	> 100	> 100	> 100	> 100	80.6	> 100	> 100
OC(NN=C1CCCC1)(C(F)(F)Cl)C(F)(F)Cl	> 10		> 10	> 10	> 10	> 10	> 10	> 10	> 10	> 10
CC(C)CCOC(=O)NC(Nc1ccc(F)cc1)(C(F)(F)F)C(F)(F)F	> 100	36.5	> 100	> 100	> 100	78.5	46.1	> 100	> 100	> 100
Oc1ccc(-c2nc3ccccc3s2)cc1	> 100	> 100	79.1	> 100	> 100	70	> 100	78.8	> 100	> 100
COc1cc(Oc2nc3cc(F)c(F)cc3nc2-c2ccccc2)cc(OC)c1OC	> 100	> 100	> 100	> 100	> 100	> 100	58.7	> 100	> 100	> 100

— PubChem BioAssay (NCI)
